Measured values published in patent US9809592B2, “Isopropyl triazolo pyridine compounds” (Eli Lilly and Company, priority 2014, dated 2017).

Assays:
Human GPR40 membranes = biological target: T1, Human GPR40 membranes (Homo sapiens, UniProt O14842); assay: Competition binding kinetics, receptor residence time; details: 6-8 nM [3H] TAK875; mean, SEM, n=4; read-out: GPR40 Residence time, τ
T1 construct: expressed in transfected cells; host or cells: HEK293 (membranes)
Method: The association and dissociation rates of unlabeled compounds are quantified using the method described by Motulsky, H. J. and L. C. Mahan (1984), “The kinetics of competitive radioligand binding predicted by the law of mass action” Mol Pharm 25(1): 1-9. Human GPR40 membranes are incubated at various time points with 6-8 nM [^3H] TAK875 in the absence or presence of 1× Ki, 3× Ki, or 10× Ki unlabeled compound. Separation of bound and free radioligand is performed using rapid-wash filtration onto glass fiber filters and counted in a liquid scintillation counter. Rates are calculated by fitting the data to the kinetics of competitive binding model in GraphPad Prism 6, version 6.03 for Windows, GraphPad Software, La Jolla Calif. USA, www.graphpad.com.

human GPR40 (hGPR40) = biological target: T2, human GPR40 (hGPR40) (Homo sapiens, UniProt O14842); assay: Radioligand competition binding assay with [3H]-TAK-875, HEK293 membranes; details: 5 nM [3H]-TAK-875; Cheng-Prusoff; mean, SEM
T2 construct: expressed in transfected cells; host or cells: HEK293 (membranes)
Description: Competition curves are plotted as the percent specific inhibition versus concentration of compound and analyzed using a four parameter nonlinear regression fit with variable slope. […] See Cheng, Y. and Prusoff, W. H. (1973) “Relationship between the inhibition constant (Ki) and the concentration of inhibitor which causes 50 percent inhibition (IC50) of an enzymatic reaction”, Biochem Pharmacol 22(23):3099-108.

PPARδ = biological target: T3, PPARδ (Homo sapiens, UniProt Q03181); assay: Ga14 PPARδ reporter functional assay in CV1 cells; assay type: cell-based; details: 24 hours incubation, luciferase
T3 construct: expressed in transfected cells; host or cells: CV1 (African green monkey kidney)
T3 sequence (Q03181 211-439 limits assumed): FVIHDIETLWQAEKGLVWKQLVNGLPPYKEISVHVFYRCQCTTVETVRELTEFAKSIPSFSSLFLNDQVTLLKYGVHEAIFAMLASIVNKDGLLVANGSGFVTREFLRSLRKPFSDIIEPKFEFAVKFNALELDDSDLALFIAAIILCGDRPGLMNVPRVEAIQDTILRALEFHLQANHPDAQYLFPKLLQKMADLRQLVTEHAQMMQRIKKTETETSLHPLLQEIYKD
Description: (§1) Because GPR40 is known to be activated by ligands to PPARγ, exemplified compounds are examined in Ga14 PPARα, Ga14 PPARδ, and PPARγ reporter assays to determine the selectivity of exemplified compounds. CV1 cells, which are derived from the renal tissue of an African green monkey, are transfected with various receptor and reporter plasmids using Fugene. For the Ga14 PPARα and PPARδ assays, a reporter plasmid containing five tandem copies of the yeast transcription protein Ga14 response element, cloned upstream of a firefly luciferase gene driven by the major late promoter of adenovirus, is transfected together with a Simian Virus 40 (SV40) driven plasmid constitutively expressing a hybrid protein containing the Ga14 DNA binding domain (DBD), and either the PPARα or PPARδ ligand binding domain. […] After 24 hours incubation with compounds, cells are lysed and luciferase activity is determined as a measure of receptor activation by luminescence. […] The maximum percent stimulation is determined versus maximum stimulation obtained with 10 μM of an appropriated PPAR agonist reference compound, 2-methyl-2-(4-{2-methyl-3-[2-(phenylcarbonyl)-4-(trifluoromethoxy)phenoxy]propoxy}phenoxy)propanoic acid. […]

mGPR40 = mGPR40 (Mus musculus, UniProt Q76JU9); assay: Mouse beta-arrestin agonist assay with 1% FBS (U205 cells expressing mFFAR1); assay type: cell-based; details: n=3
Description: (§2) Human embryonic kidney (hEK293)-hFFAR1 cells are purchased from DiscoveRx. Human osteosarcoma (U205) cells expressing mFFAR1 are developed by DiscoveRX. These cells co-express the Prolink (PK)-tagged GPR40 and the Enzyme Acceptor (EA)-tagged beta-arrestin fusion proteins. If activation of the GPR40 stimulates beta-arrestin recruitment, it would force complementation of the beta galactosidase (B-gal) enzyme fragments, forming a B-gal enzyme that generates a chemiluminescent signal using the DiscoveRx PathHunter detection kit. Cells are incubated overnight at 5,000 cells/well in 384 well plates in culture media containing 1% FBS (fetal bovine serum). Serial diluted compounds in DMSO (2× dilutions to generate 20 concentrations) are step down diluted in culture media containing 1% FBS (fetal bovine serum) and added to cells with a final top concentration starting of 100 μM. After addition of compounds, cells are incubated for 90 min at 37° C. in 5% CO2 incubator, and DiscoveRX kit detection reagents are added. Measurement of the chemiluminescent signal is ascertained with the Envision reader, after a 1-hour incubation at room temperature. Data are fit to a 4 parameter-fit logistics to determine EC50 values, % activity is measured versus maximum response to an internal standard GPR40 agonist standard, TAK875, at 1 μM.

PPAR = PPAR α, δ, and γ functional assays (overall statement); assay type: cell-based; details: PPARα, PPARδ and PPARγ reporter assays; efficacy of <20% is considered negative
Description: as §1

PPARα = biological target: T4, PPARα (Homo sapiens, UniProt Q07869); assay: Ga14 PPARα reporter functional assay in CV1 cells; assay type: cell-based; details: 24 hours incubation, luciferase
T4 construct: expressed in transfected cells; host or cells: CV1 (African green monkey kidney)
T4 sequence (Q07869 239-466 limits assumed): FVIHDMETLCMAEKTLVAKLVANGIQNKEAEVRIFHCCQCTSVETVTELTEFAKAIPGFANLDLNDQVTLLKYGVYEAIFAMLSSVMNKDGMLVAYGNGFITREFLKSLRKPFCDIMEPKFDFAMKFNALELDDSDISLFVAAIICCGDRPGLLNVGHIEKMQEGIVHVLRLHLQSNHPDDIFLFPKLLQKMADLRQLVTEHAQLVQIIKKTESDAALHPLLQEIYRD
Description: as §1

hGPR40 [1] = biological target: T5, hGPR40 (Homo sapiens, UniProt O14842); assay: Calcium Flux Primary Assay (FLIPR); assay type: cell-based; parameters: expressed in transfected cells; host or cells: HEK293; details: mean, SEM
Method: HEK293 cells over expressing the human GPR40 cDNA maintained in Dulbecco's modified Eagle's medium with F12 medium in 3:1 ratio supplemented with 10% FBS and 800 μg/ml geneticin at 37° C. and 5% CO2 are employed for the study. Agonist assays are performed using a Calcium 4 Dye assay kit (Molecular Devices) in the presence or absence of 0.1% fatty acid free BSA in the assay buffer (1×HBSS (Hank's Balanced Salt Solution) & 20 mM HEPES (4-(2-hydroxyethyl)-1-piperazineethanesulfonic acid). Receptor activation is measured as an increase in intracellular calcium using the Fluorometric Imaging Plate Reader (FLIPR). Maximum change in fluorescence over the base line is used to determine the agonist response. The EC50 value of the compound is calculated using Excel Fit software (version 4; IDBS) by plotting concentration vs relative fluorescence units (RFUs). […] (Mean±SEM; SEM=standard error of the mean.)
Target sequence in this assay (O14842 whole entry): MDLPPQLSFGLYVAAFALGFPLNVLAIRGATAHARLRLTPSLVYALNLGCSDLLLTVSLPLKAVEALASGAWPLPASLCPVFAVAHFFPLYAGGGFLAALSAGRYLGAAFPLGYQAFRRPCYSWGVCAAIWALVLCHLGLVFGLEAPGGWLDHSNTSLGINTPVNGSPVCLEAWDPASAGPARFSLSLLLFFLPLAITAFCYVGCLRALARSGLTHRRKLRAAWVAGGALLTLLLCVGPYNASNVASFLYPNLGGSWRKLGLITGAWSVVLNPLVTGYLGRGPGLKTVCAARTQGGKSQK

PPARγ = biological target: T6, PPARγ (Homo sapiens, UniProt P37231); assay: PPARγ reporter functional assay in CV1 cells; assay type: cell-based; details: PPARγ and RXRα, 24 hours incubation, luciferase
T6 construct: expressed in transfected cells; host or cells: CV1 (African green monkey kidney)
T6 sequence (P37231 1-505): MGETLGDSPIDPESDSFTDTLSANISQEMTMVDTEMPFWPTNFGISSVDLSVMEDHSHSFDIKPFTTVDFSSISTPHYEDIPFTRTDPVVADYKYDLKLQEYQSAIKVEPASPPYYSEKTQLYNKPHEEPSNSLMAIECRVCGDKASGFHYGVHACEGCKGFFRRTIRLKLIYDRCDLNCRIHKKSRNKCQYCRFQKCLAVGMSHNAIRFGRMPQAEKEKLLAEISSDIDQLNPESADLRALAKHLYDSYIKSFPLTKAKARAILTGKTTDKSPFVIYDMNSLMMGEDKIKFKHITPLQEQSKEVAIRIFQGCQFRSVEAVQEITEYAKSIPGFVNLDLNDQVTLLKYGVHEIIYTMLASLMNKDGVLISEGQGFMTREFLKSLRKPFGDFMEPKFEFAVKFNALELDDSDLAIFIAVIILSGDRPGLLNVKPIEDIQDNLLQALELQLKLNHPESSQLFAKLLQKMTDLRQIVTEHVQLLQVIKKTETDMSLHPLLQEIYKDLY
T6 sequence (P19793 1-462 partner): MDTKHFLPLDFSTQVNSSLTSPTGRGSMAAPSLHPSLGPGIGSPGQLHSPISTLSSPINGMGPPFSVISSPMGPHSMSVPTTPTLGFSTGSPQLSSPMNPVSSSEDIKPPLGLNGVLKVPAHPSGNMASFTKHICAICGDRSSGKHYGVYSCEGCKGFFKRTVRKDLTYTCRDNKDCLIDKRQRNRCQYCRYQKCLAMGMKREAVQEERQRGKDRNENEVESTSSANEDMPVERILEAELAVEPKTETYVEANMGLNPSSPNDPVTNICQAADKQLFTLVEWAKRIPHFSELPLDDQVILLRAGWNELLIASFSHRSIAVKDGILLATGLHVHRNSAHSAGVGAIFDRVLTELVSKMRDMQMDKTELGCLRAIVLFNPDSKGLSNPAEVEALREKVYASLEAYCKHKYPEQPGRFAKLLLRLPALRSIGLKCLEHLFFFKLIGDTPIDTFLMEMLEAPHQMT
Description: as §1

hGPR40 [2] = biological target: T5, hGPR40; assay: Human beta-arrestin agonist assay with 1% FBS (hEK293-hFFAR1 cells); assay type: cell-based; parameters: host or cells: HEK293 (hEK293-hFFAR1); details: n=2
Description: as §2
Target sequence in this assay (O14842 whole entry): as the sequence (O14842 whole entry) above
Target sequence in this assay (P32121 whole entry partner): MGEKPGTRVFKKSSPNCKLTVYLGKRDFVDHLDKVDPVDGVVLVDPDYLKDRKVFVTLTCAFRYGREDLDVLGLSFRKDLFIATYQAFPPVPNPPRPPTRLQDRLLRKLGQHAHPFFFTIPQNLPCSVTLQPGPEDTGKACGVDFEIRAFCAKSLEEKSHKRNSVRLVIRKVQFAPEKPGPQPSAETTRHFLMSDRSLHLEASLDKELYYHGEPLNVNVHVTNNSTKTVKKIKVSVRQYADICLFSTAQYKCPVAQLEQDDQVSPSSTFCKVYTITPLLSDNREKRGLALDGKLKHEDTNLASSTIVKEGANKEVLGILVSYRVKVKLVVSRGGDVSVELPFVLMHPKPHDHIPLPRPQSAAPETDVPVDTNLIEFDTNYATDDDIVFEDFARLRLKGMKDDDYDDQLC

[3] = versus maximum response to TAK875 at 1 μM

Chain of mGPR40 (Q76JU9 whole entry, the tested form may be a part): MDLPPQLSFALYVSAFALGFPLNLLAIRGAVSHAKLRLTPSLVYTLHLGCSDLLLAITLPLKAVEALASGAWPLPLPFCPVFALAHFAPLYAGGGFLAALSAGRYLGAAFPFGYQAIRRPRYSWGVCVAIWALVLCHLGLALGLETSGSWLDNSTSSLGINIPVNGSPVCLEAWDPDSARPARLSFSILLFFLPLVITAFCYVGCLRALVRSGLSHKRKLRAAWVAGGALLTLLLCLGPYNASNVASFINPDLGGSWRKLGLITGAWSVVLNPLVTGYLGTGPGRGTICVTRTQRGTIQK
Chain of mGPR40 (P32121 whole entry partner, the tested form may be a part): as the sequence (P32121 whole entry partner) above
T2 sequence (O14842 whole entry): as the sequence (O14842 whole entry) above
T1 sequence (O14842 whole entry): as above

residence time (Human GPR40 membranes): 169 min
Ki (human GPR40 (hGPR40)): 15.8 nM
EC50 (PPARδ): 4 µM
EC50 (mGPR40; 1% FBS, 90 min, mean, SEM, read-out: mGPR40 b-arrestin EC50): 4.87 nM
% stimulation max (FA), mGPR40 b-arrestin (mGPR40; [3]): 149%
EC50 (PPARα): > 10 µM
EC50 (hGPR40 [1]; HEK293 cells over expressing human GPR40): 247 nM
efficacy (hGPR40 [1]; maximal response compared to natural ligand linoleic acid): 78.7%
EC50 (PPARγ): 2260 nM
EC50 (hGPR40 [2]; 1% FBS, 90 min, mean, SEM, read-out: hGPR40 b-arrestin EC50): 30.6 nM
% stimulation max (FA), hGPR40 b-arrestin (hGPR40 [2]; [3]): 170%
Compound: CC#C[C@@H](CC(=O)O)c1ccc(OCc2cc(-c3c(C)cc(OC)cc3C)c3nc(C(C)C)nn3c2)cc1 [Example 1, (S)-3-{4-[2-Isopropyl-8-(4-methoxy-2,6-dimethyl-phenyl)-[1,2,4]triazolo[1,5-a]pyridin-6-ylmethoxy]-phenyl}-hex-4-ynoic acid]
PPAR activity / efficacy (in words) (PPAR): weak PPAR activity
